According to patent US10844064B2, “sGC stimulators” (Cyclerion Therapeutics, Inc., priority 2014, dated 2020):
Where “and” joins values, the source holds several entries; their conditions need not be identical. Equal values may be shown once.

molecular target: T1, sGC enzyme (Homo sapiens, UniProt Q02108+Q02153); test: cGMP GloSensor cell-based assay, 384-well format (Example 2B); settings: HEK293 GloSensor 40F cGMP cells, 10 μM DETA-NONOate; 50% of high control response (Compound Y); read-out: sGC_HEK_GloSensor EC50/IC50 Abs (Norm) (nM) Binned
T1 construct: host or cells: HEK293 expressing GloSensor 40F cGMP
T1 sequence (Q02108 1-690): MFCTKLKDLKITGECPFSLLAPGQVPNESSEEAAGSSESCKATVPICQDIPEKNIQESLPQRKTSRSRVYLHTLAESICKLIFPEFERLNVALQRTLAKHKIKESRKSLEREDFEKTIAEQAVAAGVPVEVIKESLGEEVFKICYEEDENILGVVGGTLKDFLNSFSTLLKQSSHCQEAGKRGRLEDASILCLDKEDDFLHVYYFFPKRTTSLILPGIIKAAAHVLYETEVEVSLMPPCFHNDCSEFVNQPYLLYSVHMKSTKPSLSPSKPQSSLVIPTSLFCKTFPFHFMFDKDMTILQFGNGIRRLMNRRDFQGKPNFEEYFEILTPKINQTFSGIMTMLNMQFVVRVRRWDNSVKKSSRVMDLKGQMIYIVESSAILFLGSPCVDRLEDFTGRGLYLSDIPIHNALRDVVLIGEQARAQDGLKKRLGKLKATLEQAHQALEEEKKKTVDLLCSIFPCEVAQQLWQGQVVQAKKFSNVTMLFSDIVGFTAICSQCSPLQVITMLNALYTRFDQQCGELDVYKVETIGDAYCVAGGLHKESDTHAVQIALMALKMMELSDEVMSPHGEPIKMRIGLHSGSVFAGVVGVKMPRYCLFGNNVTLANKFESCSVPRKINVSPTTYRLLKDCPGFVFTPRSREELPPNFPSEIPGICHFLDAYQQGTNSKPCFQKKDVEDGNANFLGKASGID
T1 sequence (Q02153 1-619): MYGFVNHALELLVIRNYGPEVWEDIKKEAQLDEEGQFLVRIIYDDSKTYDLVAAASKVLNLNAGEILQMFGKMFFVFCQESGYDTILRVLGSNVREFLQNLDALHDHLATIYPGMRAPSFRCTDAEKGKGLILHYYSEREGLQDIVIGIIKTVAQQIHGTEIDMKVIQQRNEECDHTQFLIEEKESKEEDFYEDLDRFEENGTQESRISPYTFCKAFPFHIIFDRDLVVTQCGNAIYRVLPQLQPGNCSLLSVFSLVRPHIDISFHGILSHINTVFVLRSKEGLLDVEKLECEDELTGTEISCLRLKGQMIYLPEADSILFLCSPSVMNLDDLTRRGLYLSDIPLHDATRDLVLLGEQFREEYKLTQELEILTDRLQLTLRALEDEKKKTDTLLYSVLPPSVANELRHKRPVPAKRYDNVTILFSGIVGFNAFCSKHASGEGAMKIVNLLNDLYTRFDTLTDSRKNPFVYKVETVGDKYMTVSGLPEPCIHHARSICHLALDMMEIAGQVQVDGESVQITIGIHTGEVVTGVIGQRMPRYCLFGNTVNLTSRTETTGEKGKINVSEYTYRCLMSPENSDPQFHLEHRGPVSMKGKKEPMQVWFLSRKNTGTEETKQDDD
Procedure: Data were normalized to a high control using the following equation: 100*(Sample—Low Control)/(High Control—Low Control), where the low control is the average of 16 samples treated with 1% DMSO, and the high control is the average of 16 samples treated with 30 μM of Compound Y depicted below. Data were fit using a 4-parameter fit (log(agonist) vs. response variable slope) using GraphPad Prism Software v.5. n=2 for all compounds. […] Compounds failing to elicit a minimum response of 50% are reported as >30 μM. For compounds run in duplicate or n higher than 2, the result herein given is the geometric mean of the several results obtained.
Human embryonic kidney cells (HEK293) cells expressing GloSensor™ 40F cGMP (Part No: CS182801, Promega) were used to evaluate the activity of test compounds. The luminescent biosensors (engineered luciferase) that were incorporated into these cells detect cGMP formed by the compounds stimulating the sGC enzyme and emit luminescence.
cGMP GloSensor cells were maintained in Dulbecco's Modification of Eagle's Medium (DMEM) supplemented with fetal bovine serum (FBS) (10% final) and hygromycine (200 μg/ml). The day before assay, cells were plated in DMEM with 10% FBS in a 50 μL volume at a density of 1.5×10^4 cells/well in a poly-D-lysine coated 384-well flat white-bottom plate (Corning Cat No 35661). Cells were incubated overnight at 37° C. in a humidified chamber with 5% CO2. The next day, medium was removed and cells were replaced with 40 μl/well of GloSensor™, […] (Promega Cat No E1291). Cells were treated for 90 minutes at 25° C. to allow the substrate to equilibrate in the cells. Test compounds and Diethylenetriamine NONOate (DETA-NONOate) was diluted to […] in serum-free CO2 independent medium and serally diluted at 4× dilutions to create 5× dose curve from which 10 ul was added to the wells (x uM concentration for test compound solution and 10 μM concentration for DETA-NONOate solution; wherein x is one of the following final concentrations).
For the kinetics studies, luminescense was measured right away for 0.2 sec per well with Envision (Perkin Elmer model No). For endpoint SAR screening, data were collected after 55 min incubation at room temperature.
Data analysis was carried out as indicated above in Example 2A.

| EC50 | Compound |
| --- | --- |
| > 1000 nM and < 100 nM | Cn1cc(-c2nc(N)c3c(n2)NC(=O)C3(C)C)nc1Cc1ccccc1F [Compound I-12] |
| 100 to 1000 nM | COc1cc(-c2ncc3c(n2)NC(=O)C3(C)C)nn1Cc1ccccc1F [Compound I-24] |
| 100 to 1000 nM | CC(=O)c1cc(-c2ncc3c(n2)NC(=O)C3(C)C)nn1Cc1ccccc1F [Compound I-25] |
| > 1000 nM | COc1cc(-c2ncc3c(n2)N(C)C(=O)C3(C)C)nn1Cc1ccccc1F [Compound I-26] |
| 100 to 1000 nM | COc1cc(-c2ncc3c(n2)NCC3(C)C)nn1Cc1ccccc1F [Compound I-27] |
| 100 to 1000 nM | COc1cc(-c2nc(O)c3c(n2)NC(=O)C3(C)C)nn1Cc1ccccc1F [Compound I-28] |
| > 1000 nM | CC1(C)C(=O)Nc2nc(-c3cc(O)n(Cc4ccccc4F)n3)ncc21 [Compound I-29] |
| 100 to 1000 nM | CC1(C)C(=O)Nc2nc(-c3cc(OC(F)F)n(Cc4ccccc4F)n3)ncc21 [Compound I-31] |
| 100 to 1000 nM | CC1(C)C(=O)Nc2nc(-c3cc(OC(F)F)n(Cc4ccccc4F)n3)nc(O)c21 [Compound I-32] |
| > 1000 nM | COc1cc(-c2ncc3c(n2)N(CC2CC2)C(=O)C3(C)C)nn1Cc1ccccc1F [Compound I-33] |
| > 1000 nM | CCOc1cc(-c2ncc3c(n2)NC(=O)C3(C)C)nn1Cc1ccccc1F [Compound I-34] |
| > 1000 nM | CCCOc1cc(-c2ncc3c(n2)NC(=O)C3(C)C)nn1Cc1ccccc1F [Compound I-35] |
| > 1000 nM | CC(C)Oc1cc(-c2ncc3c(n2)NC(=O)C3(C)C)nn1Cc1ccccc1F [Compound I-36] |
| > 1000 nM | CC1(C)C(=O)Nc2nc(-n3cc(O)c(Cc4ccccc4F)n3)ncc21 [Compound I-37] |
| < 100 nM | COc1cn(-c2ncc3c(n2)NC(=O)C3(C)C)nc1Cc1ccccc1F [Compound I-38] |
| < 100 nM | COc1c(Br)c(-c2ncc3c(n2)NC(=O)C3(C)C)nn1Cc1ccccc1F [Compound I-40] |
| 100 to 1000 nM | COc1c(C)c(-c2nc(N)c3c(n2)NC(=O)C3(C)C)nn1Cc1ccccc1F [Compound I-41] |
| > 1000 nM | COc1c(C)c(-c2nc(O)c3c(n2)NC(=O)C3(C)C)nn1Cc1ccccc1F [Compound I-42] |
| 100 to 1000 nM | COc1c(C)c(-c2ncc3c(n2)NC(=O)C3(C)C)nn1Cc1ccccc1F [Compound I-43] |
| < 100 nM | COc1c(Cl)c(-c2ncc3c(n2)NC(=O)C3(C)C)nn1Cc1ccccc1F [Compound I-44] |
| < 100 nM | CC1(C)C(=O)Nc2nc(-c3cc(C#N)n(Cc4ccccc4F)n3)ncc21 [Compound I-45] |
| < 100 nM | COc1cc(-c2nc(N)c3c(n2)NC(=O)C3(C)C)nn1Cc1ccccc1 [Compound I-51, 4-amino-2-(1-benzyl-5-methoxy-1H-pyrazol-3-yl)-5,5-dimethyl-5H-pyrrolo-[2,3-d]pyrimidin-6(7H)-one] |
| 100 to 1000 nM | COc1cc(-c2ncc3c(n2)NC(=O)C3(C)C)nn1Cc1ccccc1 [Compound I-52] |
| 100 to 1000 nM | COc1cc(-c2ncc3c(n2)N(C(=O)OC(C)(C)C)C(=O)C3(C)C)nn1Cc1ccccc1 [Compound I-54, 2-(1-benzyl-5-methoxy-1H-pyrazol-3-yl)-5,5-dimethyl-6-oxo-5H-pyrrolo-[2,3-d]pyrimidine-7(6H)-carboxylate] |

| EC50 | Compound |
| --- | --- |
| < 100 nM | COc1cc(-c2ncc3c(n2)NC(=O)C3(C)C)nn1Cc1cccc(F)c1 [Compound I-55] |
| 100 to 1000 nM | COc1cc(-c2ncc3c(n2)NC(=O)C3(C)C)nn1Cc1ccccc1Cl [Compound I-56] |
| 100 to 1000 nM | COc1cc(-c2ncc3c(n2)NC(=O)C3(C)C)nn1Cc1ccc(F)cc1 [Compound I-57] |
| < 100 nM | COc1cc(-c2ncc3c(n2)NC(=O)C3(C)C)nn1Cc1ccc(C)cc1 [Compound I-58] |
| 100 to 1000 nM | COc1cc(-c2ncc3c(n2)NC(=O)C3(C)C)nn1Cc1cccc(Cl)c1 [Compound I-59] |
| 100 to 1000 nM | COc1cc(-c2ncc3c(n2)NC(=O)C3(C)C)nn1Cc1cccc(C#N)c1 [Compound I-60] |
| > 1000 nM | COc1cc(-c2ncc3c(n2)NC(=O)C3(C)C)nn1Cc1ccc(C(F)(F)F)cc1 [Compound I-62] |
| < 100 nM | COc1cc(-c2ncc3c(n2)NC(=O)C3(C)C)nn1Cc1ccc(C)cc1F [Compound I-63] |
| > 1000 nM | COc1cc(-c2ncc3c(n2)NC(=O)C3(C)C)nn1Cc1ccc(C(F)(F)F)c(F)c1 [Compound I-64] |
| > 30000 nM | Cn1c(=O)[nH]c2nc(-c3cc(-c4ccon4)n(Cc4ccccc4F)n3)ncc21 [Compound I-65] |
| > 1000 nM | Cn1cc(-c2ncc3c(n2)NC(=O)C3(C)C)nc1Cc1ccccc1F [Compound I-66] |
| 100 to 1000 nM | COc1cn(-c2nnc3c(n2)NC(=O)C3(C)C)nc1Cc1ccccc1F [Compound I-67] |
| > 1000 nM | CC1(C)C(=O)Nc2nnc(-c3cc(-c4ccon4)n(Cc4ccccc4F)n3)nc21 [Compound I-68] |
| 100 to 1000 nM | CC1(C)C(=O)Nc2nc(-c3cc(C#N)n(Cc4ccccc4F)n3)nnc21 [Compound I-69] |
| 100 to 1000 nM | CC(=O)c1cc(-c2nnc3c(n2)NC(=O)C3(C)C)nn1Cc1ccccc1F [Compound I-70] |
| 100 to 1000 nM | CC1(C)C(=O)Nc2nc(-c3ccn(Cc4ccccc4F)n3)nc(N)c21 [Compound I-73, 4-amino-2-(1-(2-fluorobenzyl)-1H-pyrazol-3-yl)-5,5-dimethyl-5H-pyrrolo[2,3-d]pyrimidin-6(7H)-one] |
| 100 to 1000 nM | CC1(C)C(=O)Nc2nc(-c3ccn(Cc4ccccc4F)n3)ncc21 [Compound I-74] |
| 100 to 1000 nM | CC1(C)C(=O)Nc2nc(-c3ccn(Cc4ccccc4F)n3)nc(NCC3CC3)c21 [Compound I-75] |
| 100 to 1000 nM | CC1(C)C(=O)Nc2nc(-c3ccn(Cc4ccccc4F)n3)nc(N3CCOCC3)c21 [Compound I-76] |
| > 1000 nM | Cc1nc(-c2ccn(Cc3ccccc3F)n2)nc2c1C(C)(C)C(=O)N2 [Compound I-77] |
| > 1000 nM | COc1nc(-c2ccn(Cc3ccccc3F)n2)nc2c1C(C)(C)C(=O)N2 [Compound I-78] |
| > 1000 nM | CC1(C)C(=O)Nc2nc(-c3ccn(Cc4ccccc4F)n3)nc(O)c21 [Compound I-79] |
| < 100 nM | CC1(C)C(=O)Nc2nc(-n3cc(-c4ccon4)c(Cc4ccccc4F)n3)nc(N)c21 [Compound I-80, 4-amino-2-(3-(2-fluorobenzyl)-4-(isoxazol-3-yl)-1H-pyrazol-1-yl)-5,5-dimethyl-5H-pyrrolo[2,3-d]pyrimidin-6(7H)-one] |
